These results are taken from patent US20060263827A1, “Novel endothelial cells, antibodies directed against said cells and use thereof, in particular for screening angiogenesis inhibiting substances” (priority 2002, published 2006).

Experiment [1] has as its system F/V cells (angiogenic endothelial cells of foetal bovine aorta). Description: Proliferation test on F/V cells. It is filed as cell-based. Particulars: for sensitivity of F/V cells compared with F/0 cells to anti-angiogenic agent: F/V versus F/0 cells, seeded at low density (5000), FIG. 4. The protocol: (§1) FIG. 5A relates in particular to the action of the type 3 antibodies on the proliferation of the F/V cells of angiogenic phenotype. FIG. 5B relates to the action of the type 3 antibodies on the proliferation of the F/O non-angiogenic cells. The test carried out is a proliferation test as described in the examples. The cells are cultured in DMEM supplemented with 5% newborn calf serum to which is added either no angiogenic factor (condition 0), or 2 ng/ml VEGF (condition VEGF), or 2 ng/ml FGF-2 (condition FGF-2). The antibody is added at the same time as the angiogenic factors, at variable concentrations (0, 1, 3 or 7 μg/ml).
(§2) The test carried out is a proliferation test as described in the examples. The cells are cultured in DMEM supplemented with 5% newborn calf serum. The antibody is added at the same time as the angiogenic factors, at variable concentrations (0, 50 or 100 μg/ml).
12-well plates are seeded at a low density (5000 to 10,000 cells/well), in DMEM medium with 8% serum. After 24 hours, the proliferation of the cells is stimulated by the addition of a range of growth factor, anti-angiogenic medicaments (methoxyestradiol, fumagillin, SU5416 targeted on VEGF-R2—Plouët et al., 2001) or antibodies of the present invention. The cells are restimulated after 48 hours and then after a total of five days in culture the cells are trypsinated and counted with a Coulter counter.
The F/0 and F/V cells are seeded at a low density (5000) as indicated and three drugs are inoculated separately, 2 of which are of unknown mechanism (Methoxyestradiol-ME-2 and fumagillin—FUMA) and 1 interfering with VEGF-R2 (SU 5416) inhibiting kinase activity.

The subject of experiment [2] is F/0 cells (non-angiogenic endothelial cells of foetal bovine aorta). Description: Proliferation test on F/0 cells. In kind it is cell-based. The protocol: as §1, §2
12-well plates are seeded at a low density (5000 to 10,000 cells/well), in DMEM medium with 8% serum. After 24 hours, the proliferation of the cells is stimulated by the addition of a range of growth factor, anti-angiogenic medicaments (methoxyestradiol, fumagillin, SU5416 targeted on VEGF-R2—Plouët et al., 2001) or antibodies of the present invention. The cells are restimulated after 48 hours and then after a total of five days in culture the cells are trypsinated and counted with a Coulter counter. […]

Entries after “also recorded” stand apart in the source; their conditions may differ.

As for `Cc1cc(C)c(/C=C2\C(=O)Nc3ccccc32)[nH]1` [SU 5416], the “sensitivity of F/V cells compared with F/0 cells to anti-angiogenic agent” value in experiment [1] is “much more sensitive”.
On the same count and under the same terms, the entry for `CO[C@@H]1[C@H](OC(=O)/C=C/C=C/C=C/C=C/C(=O)O)CC[C@]2(CO2)[C@H]1[C@@]1(C)O[C@@H]1CC=C(C)C` [fumagillin] is “identically sensitive; also recorded: equally sensitive”; for `COc1cc2c(cc1O)CC[C@@H]1[C@@H]2CC[C@]2(C)[C@@H](O)CC[C@@H]12` [methoxyestradiol] it is “identically sensitive; also recorded: equally sensitive”.
With VEGF, in experiment [2], the “proliferation under the action of VEGF (in words)” value is “do not proliferate”. Besides, the “ED 50 of mitogenic action” value in experiment [1] (F/V cells) turned out to be 0.3 ng/mL.
